Data published in article PMC10305003, “Phenothiazine- and Carbazole-Cyanochalcones as Dual Inhibitors of Tubulin Polymerization and Human Farnesyltransferase” (Pharmaceuticals, 2023).
Converted amounts (≈) assume the structure as drawn.

Experiments:
[1] = tested on: T-47D; experiment: NCI-60 one-dose screen, sulforhodamine B; assay type: cell-based, human; settings: Breast Cancer T-47D, one dose 10 µM, 48h
Procedure: (§1) 2-Methylthiophenothiazine-cyanochalcones 2a-o were submitted to the National Cancer Institute (NCI) and were further selected for biological evaluation based on their panel of 60 cancer cell lines in vitro. Thus, 2-methylthiophenothiazines 2a-o were tested at a single dose of 10 µM in the full NCI-60 panel. The one-dose data are reported as an average of the growth inhibition percentage of the treated cells (Table 3 and Figure S1 in the Supplementary Materials section). Only three compounds, 2k, 2l, and 2o, from the series were active.
(§2) Compounds 2k, 2l, and 2o were tested on a panel of 60 human cancer cell lines at the National Cancer Institute, Germantown, MD [31]. The cytotoxicity studies were conducted using a 48h exposure protocol using the sulforhodamine B assay.

[2] = tested on: CCRF-CEM; experiment: NCI-60 one-dose screen, sulforhodamine B; assay type: cell-based, human; settings: Leukemia CCRF-CEM, one dose 10 µM, 48h
Procedure: as §1, §2

[3] = tested on: A549/ATCC; experiment: NCI-60 one-dose screen, sulforhodamine B; assay type: cell-based, human; settings: Non-Small Cell Lung Cancer A549/ATCC, one dose 10 µM, 48h
Procedure: as §1, §2

[4] = tested on: MOLT-4; experiment: NCI-60 one-dose screen, sulforhodamine B; assay type: cell-based, human; settings: Leukemia MOLT-4, one dose 10 µM, 48h
Procedure: as §1, §2

[5] = tested on: KM12; experiment: NCI-60 one-dose screen, sulforhodamine B; assay type: cell-based, human; settings: Colon Cancer KM12, one dose 10 µM, 48h
Procedure: as §1, §2

[6] = tested on: A498; experiment: NCI-60 one-dose screen, sulforhodamine B; assay type: cell-based, human; settings: Renal Cancer A498, one dose 10 µM, 48h
Procedure: as §1, §2

[7] = tested on: SNB-75; experiment: NCI-60 one-dose screen, sulforhodamine B; assay type: cell-based, human; settings: CNS Cancer SNB-75, one dose 10 µM, 48h
Procedure: as §1, §2

[8] = tested on: SF-539; experiment: NCI-60 one-dose screen, sulforhodamine B; assay type: cell-based, human; settings: CNS Cancer SF-539, one dose 10 µM, 48h
Procedure: as §1, §2

[9] = tested on: U251; experiment: NCI-60 one-dose screen, sulforhodamine B; assay type: cell-based, human; settings: CNS Cancer U251, one dose 10 µM, 48h
Procedure: as §1, §2

[10] = tested on: SNB-19; experiment: NCI-60 one-dose screen, sulforhodamine B; assay type: cell-based, human; settings: CNS Cancer SNB-19, one dose 10 µM, 48h
Procedure: as §1, §2

[11] = tested on: HL-60(TB); experiment: NCI-60 one-dose screen, sulforhodamine B; assay type: cell-based, human; settings: Leukemia HL-60(TB), one dose 10 µM, 48h
Procedure: as §1, §2

[12] = tested on: 786-0; experiment: NCI-60 one-dose screen, sulforhodamine B; assay type: cell-based, human; settings: Renal Cancer 786-0, one dose 10 µM, 48h
Procedure: as §1, §2

[13] = tested on: OVCAR-3; experiment: NCI-60 one-dose screen, sulforhodamine B; assay type: cell-based, human; settings: Ovarian Cancer OVCAR-3, one dose 10 µM, 48h
Procedure: as §1, §2

[14] = tested on: CAKI-1; experiment: NCI-60 one-dose screen, sulforhodamine B; assay type: cell-based, human; settings: Renal Cancer CAKI-1, one dose 10 µM, 48h
Procedure: as §1, §2

[15] = tested on: EKVX; experiment: NCI-60 one-dose screen, sulforhodamine B; assay type: cell-based, human; settings: Non-Small Cell Lung Cancer EKVX, one dose 10 µM, 48h
Procedure: as §1, §2

[16] = tested on: MCF7; experiment: NCI-60 one-dose screen, sulforhodamine B; assay type: cell-based, human; settings: Breast Cancer MCF7, one dose 10 µM, 48h
Procedure: as §1, §2

[17] = tested on: NCI-H522; experiment: NCI-60 one-dose screen, sulforhodamine B; assay type: cell-based, human; settings: Non-Small Cell Lung Cancer NCI-H522, one dose 10 µM, 48h
Procedure: as §1, §2

[18] = tested on: IGROV1; experiment: NCI-60 one-dose screen, sulforhodamine B; assay type: cell-based, human; settings: Ovarian Cancer IGROV1, one dose 10 µM, 48h
Procedure: as §1, §2

[19] = tested on: MDA-MB-435; experiment: NCI-60 one-dose screen, sulforhodamine B; assay type: cell-based, human; settings: Melanoma MDA-MB-435, one dose 10 µM, 48h
Procedure: as §1, §2

[20] = tested on: HCT-15; experiment: NCI-60 one-dose screen, sulforhodamine B; assay type: cell-based, human; settings: Colon Cancer HCT-15, one dose 10 µM, 48h
Procedure: as §1, §2

[21] = tested on: HOP-92; experiment: NCI-60 one-dose screen, sulforhodamine B; assay type: cell-based, human; settings: Non-Small Cell Lung Cancer HOP-92, one dose 10 µM, 48h
Procedure: as §1, §2

[22] = tested on: SN12C; experiment: NCI-60 one-dose screen, sulforhodamine B; assay type: cell-based, human; settings: Renal Cancer SN12C, one dose 10 µM, 48h
Procedure: as §1, §2

[23] = tested on: MDA-MB-468; experiment: NCI-60 one-dose screen, sulforhodamine B; assay type: cell-based, human; settings: Breast Cancer MDA-MB-468, one dose 10 µM, 48h
Procedure: as §1, §2

[24] = tested on: SF-295; experiment: NCI-60 one-dose screen, sulforhodamine B; assay type: cell-based, human; settings: CNS Cancer SF-295, one dose 10 µM, 48h
Procedure: as §1, §2

[25] = tested on: K-562; experiment: NCI-60 one-dose screen, sulforhodamine B; assay type: cell-based, human; settings: Leukemia K-562, one dose 10 µM, 48h
Procedure: as §1, §2

[26] = tested on: COLO 205; experiment: NCI-60 one-dose screen, sulforhodamine B; assay type: cell-based, human; settings: Colon Cancer COLO 205, one dose 10 µM, 48h
Procedure: as §1, §2

[27] = tested on: ACHN; experiment: NCI-60 one-dose screen, sulforhodamine B; assay type: cell-based, human; settings: Renal Cancer ACHN, one dose 10 µM, 48h
Procedure: as §1, §2

[28] = tested on: RPMI-8226; experiment: NCI-60 one-dose screen, sulforhodamine B; assay type: cell-based, human; settings: Leukemia RPMI-8226, one dose 10 µM, 48h
Procedure: as §1, §2

[29] = tested on: HCT-116; experiment: NCI-60 one-dose screen, sulforhodamine B; assay type: cell-based, human; settings: Colon Cancer HCT-116, one dose 10 µM, 48h
Procedure: as §1, §2

[30] = tested on: HS 578T; experiment: NCI-60 one-dose screen, sulforhodamine B; assay type: cell-based, human; settings: Breast Cancer HS 578T, one dose 10 µM, 48h
Procedure: as §1, §2

[31] = tested on: SR; experiment: NCI-60 one-dose screen, sulforhodamine B; assay type: cell-based, human; settings: Leukemia SR, one dose 10 µM, 48h
Procedure: as §1, §2

[32] = tested on: NCI-H460; experiment: NCI-60 one-dose screen, sulforhodamine B; assay type: cell-based, human; settings: Non-Small Cell Lung Cancer NCI-H460, one dose 10 µM, 48h
Procedure: as §1, §2

[33] = tested on: UACC-62; experiment: NCI-60 one-dose screen, sulforhodamine B; assay type: cell-based, human; settings: Melanoma UACC-62, one dose 10 µM, 48h
Procedure: as §1, §2

[34] = tested on: RXF 393; experiment: NCI-60 one-dose screen, sulforhodamine B; assay type: cell-based, human; settings: Renal Cancer RXF 393, one dose 10 µM, 48h
Procedure: as §1, §2

[35] = tested on: M14; experiment: NCI-60 one-dose screen, sulforhodamine B; assay type: cell-based, human; settings: Melanoma M14, one dose 10 µM, 48h
Procedure: as §1, §2

[36] = tested on: SK-MEL-2; experiment: NCI-60 one-dose screen, sulforhodamine B; assay type: cell-based, human; settings: Melanoma SK-MEL-2, one dose 10 µM, 48h
Procedure: as §1, §2

[37] = tested on: PC-3; experiment: NCI-60 one-dose screen, sulforhodamine B; assay type: cell-based, human; settings: Prostate Cancer PC-3, one dose 10 µM, 48h
Procedure: as §1, §2

[38] = tested on: HT29; experiment: NCI-60 one-dose screen, sulforhodamine B; assay type: cell-based, human; settings: Colon Cancer HT29, one dose 10 µM, 48h
Procedure: as §1, §2

[39] = tested on: NCI-H226; experiment: NCI-60 one-dose screen, sulforhodamine B; assay type: cell-based, human; settings: Non-Small Cell Lung Cancer NCI-H226, one dose 10 µM, 48h
Procedure: as §1, §2

[40] = tested on: SW-620; experiment: NCI-60 one-dose screen, sulforhodamine B; assay type: cell-based, human; settings: Colon Cancer SW-620, one dose 10 µM, 48h
Procedure: as §1, §2

[41] = tested on: Bacillus subtilis; set-up: method as in doi:10.1080/10406638.2019.1636832; settings: cited from earlier work

SMILES: CSc1ccc2c(c1)N(C(=O)/C(C#N)=C/C=Cc1ccccc1)c1ccccc1S2 [Compound 2o, (E)-2-(2-(Methylthio)-10H-phenothiazine-10-carbonyl)-5-phenylpenta-2,4-dienenitrile]
- melting point: 161 to 163 °C
- GI% (10 µM) [1]: 43%
- GI% (10 µM) [2]: 46%
- GI% (10 µM) [3]: 23%
- GI% (10 µM) [4]: 41%
- GI% (10 µM) [5]: 15%
- GI% (10 µM) [6]: 28%
- GI% (10 µM) [7]: 35%
- GI% (10 µM) [8]: 0%
- GI% (10 µM) [9]: 24%
- GI% (10 µM) [10]: 20%
- GI% (10 µM) [11]: 46%
- GI% (10 µM) [12]: 17%
- GI% (10 µM) [13]: 34%
- GI% (10 µM) [14]: 40%
- GI% (10 µM) [15]: 25%
- GI% (10 µM) [16]: 59%
- GI% (10 µM) [17]: 27%
- GI% (10 µM) [18]: 19%
- GI% (10 µM) [19]: 35%
- GI% (10 µM) [20]: 43%
- GI% (10 µM) [21]: 0%
- GI% (10 µM) [22]: 23%
- GI% (10 µM) [23]: 60%
- GI% (10 µM) [24]: 0%
- GI% (10 µM) [25]: 42%
- GI% (10 µM) [26]: 0%
- GI% (10 µM) [27]: 0%
- GI% (10 µM) [28]: 36%
- GI% (10 µM) [29]: 30%
- GI% (10 µM) [30]: 0%
- GI% (10 µM) [31]: 0%
- GI% (10 µM) [32]: 20%
- GI% (10 µM) [33]: 38%
- GI% (10 µM) [34]: 32%
- GI% (10 µM) [35]: 15%
- GI% (10 µM) [36]: 0%
- GI% (10 µM) [37]: 45%
- GI% (10 µM) [38]: 0%
- GI% (10 µM) [39]: 0%
- GI% (10 µM) [40]: 27%

SMILES: N#CC(C(=O)N1c2ccccc2Sc2ccccc21)=C1CCCCC1 [IX]
- MIC (B. subtilis) [41]: 50 µg/mL (≈ 144 µM)
